Test results taken from patent US20070173522A1, “4-(2-Phenylsulfanyl-phenyl)-1,2,3,6- tetrahydropyridine derivatives as serotonin reuptake inhibitors” (priority 2003, published 2007).

Experiments:
[1] = target: T1, serotonin reuptake (5-HT uptake into rat cortical synaptosomes) (Rattus norvegicus, UniProt P31652); assay: Measurements of [3H]-5-HT uptake into rat cortical synaptosomes; assay type: biochemical; details: result in words; test described in the examples section
T1 construct: Whole brains from male Wistar rats (125-225 g), excluding cerebellum, are homogenized; from tissue; host or cells: synaptosomal preparation from whole brain (excluding cerebellum) of male Wistar rats
T1 sequence (P31652 whole entry): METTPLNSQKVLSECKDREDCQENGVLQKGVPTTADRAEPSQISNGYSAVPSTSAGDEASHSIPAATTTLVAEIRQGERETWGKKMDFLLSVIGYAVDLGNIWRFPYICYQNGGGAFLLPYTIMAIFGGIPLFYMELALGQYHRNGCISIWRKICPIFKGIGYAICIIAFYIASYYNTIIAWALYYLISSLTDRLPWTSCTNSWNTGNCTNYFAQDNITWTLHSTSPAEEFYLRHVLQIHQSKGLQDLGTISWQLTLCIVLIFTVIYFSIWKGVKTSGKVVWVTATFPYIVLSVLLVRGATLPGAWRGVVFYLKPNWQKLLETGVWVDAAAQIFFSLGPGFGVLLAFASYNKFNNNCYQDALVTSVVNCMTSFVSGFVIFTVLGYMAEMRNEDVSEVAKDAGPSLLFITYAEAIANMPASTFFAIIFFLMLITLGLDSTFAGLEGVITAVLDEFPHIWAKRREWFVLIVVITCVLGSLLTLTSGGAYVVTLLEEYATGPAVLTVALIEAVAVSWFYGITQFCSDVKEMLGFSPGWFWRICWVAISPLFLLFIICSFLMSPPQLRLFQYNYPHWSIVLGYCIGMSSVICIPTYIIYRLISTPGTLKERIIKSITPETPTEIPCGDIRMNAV
Protocol: Measurements of [^3]-5-HT Uptake into Rat Cortical Synaptosomes.
Whole brains from male Wistar rats (125-225 g), excluding cerebellum, are homogenized in 0.32 M sucrose supplemented with 1 mM nialamid with a glass/teflon homogenizer. The homogenate is centrifuged at 600×g for 10 mil at 4° C. The pellet is discarded and the supernatant is centrifuged at 20.000×g for 55 min. The final pellet is homogenized (20 sec) in this assay buffer (0.5 mg original tissue/well). Test compounds (or buffer) and 10 nM [^3H]-5-HT are added to 96 well plates and shaken briefly. Composition of assay buffer: 123 mM NaCl, 4.82 mM KCl, 0.973 mM CaCl2, 1.12 mM MgSO4, 12.66 mM Na2HPO4, 2.97 mM NaH2PO4, 0.162 mM EDTA, 10 mM glucose and 1 mM ascorbic acid. Buffer is oxygenated with 95% O2/5% CO2 for 10 min at 37° C. and pH is adjusted 7.4. The incubation is started by adding tissue to a final assay volume of 0.2 mL. After 15 min incubation with radioligand at 37° C., samples are filtered directly on Unifilter GF/C glass fiber filters (soaked for 1 hour in 0.1% polyethylenimine) under vacuum and immediately washed with 3×0.2 ml assay buffer. Non-specific uptake is determined using citalopram (10 μM final concentration). Citalopram is included as reference in all experiments as dose-response curve.

[2] = target: T2, norepinephrine uptake (noradrenaline uptake into rat cortical synaptosomes) (Rattus norvegicus, UniProt Q63380); assay: Measurements of [3H]noradrenaline uptake into rat cortical synaptosomes; assay type: biochemical; details: result in words; test described in the examples section
T2 construct: Fresh cortex from male Wistar rats (125-225 g) are homogenized in 0.4M sucrose; from tissue; host or cells: synaptosomal preparation from fresh cortex of male Wistar rats
T2 sequence (Q63380 1-617): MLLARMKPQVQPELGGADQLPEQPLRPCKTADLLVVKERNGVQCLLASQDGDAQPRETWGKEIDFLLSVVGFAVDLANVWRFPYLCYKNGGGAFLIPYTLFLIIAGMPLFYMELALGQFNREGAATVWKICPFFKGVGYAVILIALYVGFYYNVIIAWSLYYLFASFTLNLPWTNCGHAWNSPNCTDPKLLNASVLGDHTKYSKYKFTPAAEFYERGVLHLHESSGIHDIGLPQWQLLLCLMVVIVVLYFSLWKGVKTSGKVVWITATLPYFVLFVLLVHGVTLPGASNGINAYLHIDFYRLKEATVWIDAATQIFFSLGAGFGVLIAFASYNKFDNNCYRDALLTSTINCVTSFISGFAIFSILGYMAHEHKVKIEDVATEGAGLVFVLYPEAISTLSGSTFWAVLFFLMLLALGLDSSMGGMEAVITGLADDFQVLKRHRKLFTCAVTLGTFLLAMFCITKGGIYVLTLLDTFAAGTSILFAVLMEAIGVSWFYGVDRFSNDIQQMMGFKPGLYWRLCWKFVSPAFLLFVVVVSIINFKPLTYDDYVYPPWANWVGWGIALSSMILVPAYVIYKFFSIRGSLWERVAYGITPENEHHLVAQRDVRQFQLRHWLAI
Protocol: Measurements of ^3H]Noradrenaline Uptake into Rat Cortical Synaptosomes.
Fresh cortex from male Wistar rats (125-225 g) are homogenized in 0.4M sucrose with a glass/teflon homogenizer. The homogenate is centrifuged at 600×g for 10 min at 4° C. The pellet is discarded and the supernatant is centrifuged at 20.000×g for 55 min. The final pellet is homogenized (20 sec) in this assay buffer (6 mg original tissue/mL=4 mg/well). Test compounds (or buffer) and 10 nM [^3H]-noradrenaline are added to deep 96 well plates and shaken briefly. Composition of assay buffer: 123 mM NaCl, 4.82 mM KCl, 0.973 mM CaCl2, 1.12 mM MgSO4, 12.66 mM Na2HPO4, 2.97 mM NaH2PO4, 0.162 mM EDTA, 10 mM glucose and 1 mM ascorbic acid. Buffer is oxygenated with 95% O2/5% CO2 for 10 min at 37° C. and pH is adjusted 7.4. The incubation is started by adding tissue to a final assay volume of 1 ml. After 15 min incubation with radioligand at 37° C., samples are filtered directly on Unifilter GF/C glass fiber filters (soaked for 1 hour in 0.1% polyethylenimine) under vacuum and immediately washed with 3×1 mL assay buffer. Non-specific uptake is determined using talsupram (10 μM final concentration). Duloxetine is included as reference in all experiments as dose-response curve.

Compound	serotonin reuptake inhibition [1]	norepinephrine uptake inhibition [2]
Cc1cccc(Sc2ccccc2C2=CCNCC2)c1C [Compound 33, 4-[2-(2,3-Dimethyl-phenylsulfanyl)-phenyl]-1,2,3,6-tetrahydro-pyridine]	did show serotonin reuptake inhibition	did not show norepinephrine uptake inhibition
COc1ccc(Sc2ccccc2C2=CCNCC2)c(C)c1 [Compound 37, 4-[2-(4-Methoxy-2-methyl-phenylsulfanyl)-phenyl]-1,2,3,6-tetrahydro-pyridine]	did show serotonin reuptake inhibition	did not show norepinephrine uptake inhibition
Cc1ccc(Sc2ccc(C)cc2C2=CCNCC2)c(F)c1 [Compound 52, 4-[2-(2-Fluoro-4-methyl-phenylsulfanyl)-5-methyl-phenyl]-1,2,3,6-tetrahydro-pyridine]	did show serotonin reuptake inhibition	did not show norepinephrine uptake inhibition
COc1ccc(Sc2ccc(C)cc2C2=CCNCC2)c(F)c1 [Compound 61, 4-[2-(2-Fluoro-4-methoxy-phenylsulfanyl)-5-methyl-phenyl]-1,2,3,6-tetrahydro-pyridine]	did show serotonin reuptake inhibition	did not show norepinephrine uptake inhibition
Fc1cccc(Sc2ccccc2C2=CCNCC2)c1F [Compound 83, 4-[2-(2,3-Difluoro-phenylsulfanyl)-phenyl]-1,2,3,6-tetrahydro-pyridine]	did show serotonin reuptake inhibition	did not show norepinephrine uptake inhibition
Cc1ccc(Sc2ccccc2C2=CCNCC2)c(Cl)c1 [Compound 84, 4-[2-(2-Chloro-4-methyl-phenylsulfanyl)-phenyl]-1,2,3,6-tetrahydro-pyridine]	did show serotonin reuptake inhibition	did not show norepinephrine uptake inhibition
Cc1ccc(Sc2cccc(Cl)c2F)c(C2=CCNCC2)c1 [Compound 86]	did show serotonin reuptake inhibition	did not show norepinephrine uptake inhibition
Cc1c(F)cccc1Sc1ccccc1C1=CCNCC1 [Compound 87, 4-[2-(3-Fluoro-2-methyl-phenylsulfanyl)-phenyl]-1,2,3,6-tetrahydro-pyridine]	did show serotonin reuptake inhibition	did not show norepinephrine uptake inhibition
Cc1ccc(Sc2cccc(F)c2C)c(C2=CCNCC2)c1 [Compound 89, 4-[2-(3-Fluoro-2-methyl-phenylsulfanyl)-5-methyl-phenyl]-1,2,3,6-tetrahydro-pyridine]	did show serotonin reuptake inhibition	did not show norepinephrine uptake inhibition
Cc1ccc(Sc2ccc(C)c(F)c2)c(C2=CCNCC2)c1 [Compound 128, 4-[2-(3-Fluoro-4-methyl-phenylsulfanyl)-5-methyl-phenyl]-1,2,3,6-tetrahydro-pyridine]	did show serotonin reuptake inhibition	did not show norepinephrine uptake inhibition
